Key:
PDE11 = PDE11 (Homo sapiens, UniProt Q9HCR9); experiment: IMAP fluorescence polarization PDE assay; assay type: biochemical
PDE5 = PDE5 (Homo sapiens, UniProt O76074); experiment: IMAP fluorescence polarization PDE assay; assay type: biochemical

Chain of PDE11 (Q9HCR9 whole entry): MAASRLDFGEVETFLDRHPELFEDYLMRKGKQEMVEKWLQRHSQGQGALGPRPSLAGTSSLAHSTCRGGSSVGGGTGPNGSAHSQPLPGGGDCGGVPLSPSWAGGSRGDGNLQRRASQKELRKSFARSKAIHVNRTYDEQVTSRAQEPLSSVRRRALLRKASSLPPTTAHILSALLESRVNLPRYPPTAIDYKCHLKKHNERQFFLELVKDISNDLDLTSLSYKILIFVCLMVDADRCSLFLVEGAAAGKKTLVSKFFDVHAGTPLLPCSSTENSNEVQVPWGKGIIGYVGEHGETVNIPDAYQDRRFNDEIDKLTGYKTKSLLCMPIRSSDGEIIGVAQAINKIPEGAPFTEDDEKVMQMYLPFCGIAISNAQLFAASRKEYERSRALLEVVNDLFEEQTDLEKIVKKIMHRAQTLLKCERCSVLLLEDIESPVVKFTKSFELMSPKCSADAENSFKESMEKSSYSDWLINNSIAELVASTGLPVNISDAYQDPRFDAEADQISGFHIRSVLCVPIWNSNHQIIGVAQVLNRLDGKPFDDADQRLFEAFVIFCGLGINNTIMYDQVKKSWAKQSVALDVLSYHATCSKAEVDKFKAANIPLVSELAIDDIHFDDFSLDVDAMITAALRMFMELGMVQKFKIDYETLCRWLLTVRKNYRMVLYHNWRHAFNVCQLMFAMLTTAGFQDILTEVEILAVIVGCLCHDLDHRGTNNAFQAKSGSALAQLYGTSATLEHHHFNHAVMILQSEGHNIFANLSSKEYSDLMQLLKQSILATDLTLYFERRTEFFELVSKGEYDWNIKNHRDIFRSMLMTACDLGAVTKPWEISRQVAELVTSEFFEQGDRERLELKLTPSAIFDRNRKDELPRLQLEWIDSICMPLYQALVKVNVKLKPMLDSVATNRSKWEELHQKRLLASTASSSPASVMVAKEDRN

| IC50 (PDE11) | IC50 (PDE5) | SMILES |
| --- | --- | --- |
| > 100 µM | 87.4 ± 1.1 µM | CCN1C(=O)[C@@H]2Cc3c([nH]c4ccccc34)[C@@H](c3cc(OC)ccc3OC)N2C1=O [VIII, (5R,11aS)-2-Ethyl-5-(2,5-dimethoxyphenyl)-5,6,11,11a-tetrahydro-1H-imidazo[1′,5′:1,6]pyrido [3,4-b]indole-1,3(2H)-dione] |
| > 100 µM | > 100 µM | CCN1C(=O)[C@@H]2Cc3c([nH]c4ccccc34)[C@H](c3cc(OC)ccc3OC)N2C1=O [VII, (5S,11aS)-2-Ethyl-5-(2,5-dimethoxyphenyl)-5,6,11,11a-tetrahydro-1H-imidazo[1′,5′:1,6]pyrido [3,4-b]indole-1,3(2H)-dione] |
| > 100 µM | 5 ± 1.14 µM | CCN1C(=O)[C@H]2Cc3c([nH]c4ccccc34)[C@@H](c3cc(OC)ccc3OC)N2C1=O [V, (5R,11aR)-2-Ethyl-5-(2,5-dimethoxyphenyl)-5,6,11,11a-tetrahydro-1H-imidazo[1′,5′:1,6]pyrido [3,4-b]indole-1,3(2H)-dione] |
| > 100 µM | > 100 µM | CCN1C(=O)[C@H]2Cc3c([nH]c4ccccc34)[C@H](c3cc(OC)ccc3OC)N2C1=O [VI, (5S,11aR)-2-Ethyl-5-(2,5-dimethoxyphenyl)-5,6,11,11^a-tetrahydro-1H-imidazo[1′,5′:1,6]pyrido [3,4-b]indole-1,3(2H)-dione] |
| > 100 µM | 78.6 ± 1.14 µM | CCN1C(=O)[C@@H]2Cc3c([nH]c4ccccc34)[C@@H](c3cc(OC)ccc3OC)N2C1=S [IX, (5R,11aS)-2-ethyl-1-oxo-5-(2,5-dimethoxyphe-nyl)-5,6,11,11a-tetrahydro-1H-imidazo[1′,5′:1,6] pyrido[3,4-b]indole-3 (2H)-thione] |

Continued, molecule first:

| SMILES | IC50 (PDE11) | IC50 (PDE5) |
| --- | --- | --- |
| COC(=O)[C@H]1Cc2c([nH]c3ccccc23)[C@H](c2cc(OC)ccc2OC)N1 [II, Methyl (1S,3R)-1-(2,5-dimethoxyphenyl)-2,3,4,9-tetrahydro-1H-β-carboline-3-carboxylate] | > 100 µM | > 100 µM |
| CC1=C(CC(=O)O)c2cc(F)ccc2/C1=C\c1ccc(S(C)(=O)=O)cc1 [Exisulind, reference compound] | > 300 µM | 295 ± 1.11 µM |
| COC(=O)[C@@H]1Cc2c([nH]c3ccccc23)[C@@H](c2cc(OC)ccc2OC)N1 [IV, Methyl (1R,3S)-1-(2,5-dimethoxyphenyl)-2,3,4,9-tetrahydro-1H-β-carboline-3-carboxylate] | > 100 µM | 17.4 ± 1.09 µM |
| COC(=O)[C@H]1Cc2c([nH]c3ccccc23)[C@@H](c2cc(OC)ccc2OC)N1 [I, Methyl (1R,3R)-1-(2,5-dimethoxyphenyl)-2,3,4,9-tetrahydro-1H-β-carboline-3-carboxylate] | > 100 µM | 3.9 ± 1.09 µM |
| CCN1C(=O)[C@H]2Cc3c([nH]c4ccccc34)[C@H](c3cc(OC)ccc3OC)N2C1=S [X, (5S,11aR)-2-ethyl-1-oxo-5-(2,5-dimethoxy-phenyl)-5,6,11,11a-tetrahydro-1H-imidazo [1′,5′:1,6]pyrido[3,4-b]indole-3 (2H)-thione] | > 100 µM | > 100 µM |
| COC(=O)[C@@H]1Cc2c([nH]c3ccccc23)[C@H](c2cc(OC)ccc2OC)N1 [III, Methyl (1S,3S)-1-(2,5-dimethoxyphenyl)-2,3,4,9-tetrahydro-1H-β-carboline-3-carboxylate] | > 100 µM | 14.3 ± 1.09 µM |
